System: hTERT keratinocytes
Assay type: cell-based
Protocol: To ensure proper levels of the biological active molecules for the in vitro study, dilution studies were conducted and ATP was analyzed for the highest non-cytotoxic concentration. Olivem 460 (lot LG0833 from B&T, Milan Italy) at a level of 0.000156% and SymRelief (from Symrise) at a level of 0.0625% were determined to be appropriate respective concentrations for this study. ATP analysis is described below.
ATP analysis was conducted using Cell Titer-Glo. The CellTiter-Glo Luminescent Cell Viability Assay was obtained from Promega Corporation (Madison, Wis.). This assay is a homogeneous method for determining the number of viable cells in culture based on quantitation of ATP present, signaling the presence of metabolically active cells. After the final treatment and supernatants collected, the CellTiter-Glo reagent was added. The reagent was then transferred to a BD Falcon (Franklin Lakes, N.J.) Microtest 96-well Assay Plate (black, flat bottom, reference 353945, lot 041151). Luminescence was read on a Perkin Elmer Fluorimeter (Wallac Envision 2101 Multilabel Reader). Relative luminescence units were plotted in percent control versus treatment concentration.

Substance	highest non-cytotoxic concentration (level determined appropriate for the study) [%]
Bisabolol (and) Zingiber Officinale Root Extract [SymRelief]	0.0625
Sodium PEG-7 Olive Oil Carboxylate [Olivem 460]	0.000156

From patent US9585823B2, “Personal care compositions comprising a multi-active system for down regulating cytokines irritation” (The Gillette Company, priority 2010, dated 2017)
